Experimental findings from article PMC11702208 (RSC Advances, 2025) are described below.

As a reminder, the IC50 is the concentration that gives 50% inhibition. The low end stands for greater potency in that assay, the high end for weaker potency in that assay.

“And” between values parts separate entries of the source, which are not always exact repeats. Identical values can stand only once.

The test system of one assay is U251. Briefly: NCI cytotoxicity screen. Type of assay: cell-based, human. The conditions noted are these: 10.0 μM one dose; U-251.
Another assay deals with EKVX. Briefly: NCI cytotoxicity screen. It counts as cell-based, human. The conditions noted are these: 10.0 μM one dose.
The subject of another assay is UO-31. Briefly: NCI cytotoxicity screen. Type of assay: cell-based, human. Particulars: 10.0 μM one dose.
The next assay deals with NCI-H322M. Briefly: NCI cytotoxicity screen. Particulars: 10.0 μM one dose. It counts as cell-based, human.
The next assay concerns SF-268. Briefly: NCI cytotoxicity screen. Type of assay: cell-based, human. The conditions noted are these: 10.0 μM one dose.
Another assay deals with CAKI-1. Briefly: NCI cytotoxicity screen. It counts as cell-based, human. The conditions noted are these: 10.0 μM one dose.
The subject of a further assay is SNB-75. Briefly: NCI cytotoxicity screen. It counts as cell-based, human. Particulars: 10.0 μM one dose.
The next assay deals with HOP-92. Briefly: NCI cytotoxicity screen. Type of assay: cell-based, human. Particulars: 10.0 μM one dose.
The test system of another assay is MDA-MB-231/ATCC. Briefly: NCI cytotoxicity screen. Type of assay: cell-based, human. Particulars: 10.0 μM one dose; MDA-MB-231/ATCC.
The next assay concerns NCI-H522. Briefly: NCI cytotoxicity screen. It counts as cell-based, human. Particulars: 10.0 μM one dose.
In a further assay the test system is MCF7. Briefly: NCI cytotoxicity screen. Particulars: 10.0 μM one dose; MCF-7. Type of assay: cell-based, human.
The next assay concerns HS 578T. Briefly: NCI cytotoxicity screen. The conditions noted are these: 10.0 μM one dose; HS-578T. It counts as cell-based, human.
The subject of another assay is UACC-62. Briefly: NCI cytotoxicity screen. Type of assay: cell-based, human. The conditions noted are these: 10.0 μM one dose.
The target in another assay is CDK9 (Homo sapiens, UniProt P50750). Briefly: biochemical. The conditions noted are these: IC50 CDK9 inhibition.
CDK9, sequence (P50750 whole entry): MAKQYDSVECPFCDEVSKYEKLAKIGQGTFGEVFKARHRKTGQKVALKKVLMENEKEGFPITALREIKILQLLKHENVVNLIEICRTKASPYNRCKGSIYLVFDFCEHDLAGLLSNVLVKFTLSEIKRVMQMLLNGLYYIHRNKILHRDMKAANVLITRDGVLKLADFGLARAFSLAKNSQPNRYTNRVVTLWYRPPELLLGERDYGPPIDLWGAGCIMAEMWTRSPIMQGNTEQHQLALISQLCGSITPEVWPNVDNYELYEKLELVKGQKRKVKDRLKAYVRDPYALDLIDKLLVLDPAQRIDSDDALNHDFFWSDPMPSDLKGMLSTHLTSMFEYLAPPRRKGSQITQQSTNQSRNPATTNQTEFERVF
CDK9, sequence (O60563 whole entry partner): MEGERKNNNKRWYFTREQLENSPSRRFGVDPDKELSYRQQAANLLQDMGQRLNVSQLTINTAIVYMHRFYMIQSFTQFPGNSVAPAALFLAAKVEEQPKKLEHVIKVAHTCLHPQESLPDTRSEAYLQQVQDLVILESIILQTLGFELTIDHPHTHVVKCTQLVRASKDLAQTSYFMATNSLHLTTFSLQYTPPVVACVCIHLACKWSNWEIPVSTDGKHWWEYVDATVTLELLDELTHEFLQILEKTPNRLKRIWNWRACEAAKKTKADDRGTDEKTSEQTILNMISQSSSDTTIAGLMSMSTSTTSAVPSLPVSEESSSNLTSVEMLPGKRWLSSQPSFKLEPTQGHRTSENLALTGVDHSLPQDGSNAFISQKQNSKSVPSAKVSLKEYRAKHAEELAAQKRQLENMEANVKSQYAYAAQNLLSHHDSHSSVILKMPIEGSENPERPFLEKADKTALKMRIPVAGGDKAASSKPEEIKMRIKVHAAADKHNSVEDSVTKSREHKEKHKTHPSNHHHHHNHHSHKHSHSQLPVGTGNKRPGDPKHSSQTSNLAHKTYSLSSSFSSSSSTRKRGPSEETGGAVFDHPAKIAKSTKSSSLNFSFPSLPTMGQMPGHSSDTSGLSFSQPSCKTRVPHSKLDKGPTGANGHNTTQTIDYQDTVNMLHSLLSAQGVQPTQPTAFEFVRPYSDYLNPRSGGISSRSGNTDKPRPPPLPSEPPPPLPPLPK
The target of another assay is EGFR (Homo sapiens, UniProt P00533). Briefly: biochemical. The conditions noted are these: IC50 EGFR inhibition.
EGFR, sequence (P00533 25-1210): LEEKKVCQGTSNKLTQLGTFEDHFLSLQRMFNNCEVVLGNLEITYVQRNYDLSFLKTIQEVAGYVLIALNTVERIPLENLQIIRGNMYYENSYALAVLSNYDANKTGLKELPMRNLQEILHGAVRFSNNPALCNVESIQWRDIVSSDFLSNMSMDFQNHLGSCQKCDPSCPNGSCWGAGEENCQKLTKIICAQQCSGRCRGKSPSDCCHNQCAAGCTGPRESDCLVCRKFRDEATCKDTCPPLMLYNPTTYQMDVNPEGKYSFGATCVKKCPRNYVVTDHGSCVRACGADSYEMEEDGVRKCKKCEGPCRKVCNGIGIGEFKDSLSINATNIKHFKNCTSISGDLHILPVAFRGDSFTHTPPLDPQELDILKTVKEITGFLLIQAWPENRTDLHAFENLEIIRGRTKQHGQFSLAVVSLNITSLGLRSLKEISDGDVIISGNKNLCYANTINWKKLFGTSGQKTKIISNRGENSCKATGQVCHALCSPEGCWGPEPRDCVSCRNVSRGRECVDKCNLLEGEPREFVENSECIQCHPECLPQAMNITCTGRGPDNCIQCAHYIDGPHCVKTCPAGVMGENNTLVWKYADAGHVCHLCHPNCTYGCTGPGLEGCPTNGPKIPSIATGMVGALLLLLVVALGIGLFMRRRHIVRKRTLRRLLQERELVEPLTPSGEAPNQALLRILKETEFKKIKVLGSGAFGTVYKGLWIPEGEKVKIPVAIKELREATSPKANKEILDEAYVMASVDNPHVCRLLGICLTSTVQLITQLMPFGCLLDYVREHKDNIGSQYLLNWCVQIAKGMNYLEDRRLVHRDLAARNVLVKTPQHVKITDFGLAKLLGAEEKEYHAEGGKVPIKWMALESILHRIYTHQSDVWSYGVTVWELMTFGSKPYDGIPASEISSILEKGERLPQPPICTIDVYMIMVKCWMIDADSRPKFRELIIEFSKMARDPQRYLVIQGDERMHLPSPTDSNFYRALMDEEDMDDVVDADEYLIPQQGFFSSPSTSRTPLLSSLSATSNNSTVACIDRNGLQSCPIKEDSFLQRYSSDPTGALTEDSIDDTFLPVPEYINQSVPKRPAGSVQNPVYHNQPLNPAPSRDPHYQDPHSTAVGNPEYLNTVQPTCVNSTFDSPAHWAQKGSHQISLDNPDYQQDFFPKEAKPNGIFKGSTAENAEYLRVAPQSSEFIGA
In the next assay the target is T1, COX-2 (Ovis aries, UniProt P79208).
T1 sequence (P79208 17-603): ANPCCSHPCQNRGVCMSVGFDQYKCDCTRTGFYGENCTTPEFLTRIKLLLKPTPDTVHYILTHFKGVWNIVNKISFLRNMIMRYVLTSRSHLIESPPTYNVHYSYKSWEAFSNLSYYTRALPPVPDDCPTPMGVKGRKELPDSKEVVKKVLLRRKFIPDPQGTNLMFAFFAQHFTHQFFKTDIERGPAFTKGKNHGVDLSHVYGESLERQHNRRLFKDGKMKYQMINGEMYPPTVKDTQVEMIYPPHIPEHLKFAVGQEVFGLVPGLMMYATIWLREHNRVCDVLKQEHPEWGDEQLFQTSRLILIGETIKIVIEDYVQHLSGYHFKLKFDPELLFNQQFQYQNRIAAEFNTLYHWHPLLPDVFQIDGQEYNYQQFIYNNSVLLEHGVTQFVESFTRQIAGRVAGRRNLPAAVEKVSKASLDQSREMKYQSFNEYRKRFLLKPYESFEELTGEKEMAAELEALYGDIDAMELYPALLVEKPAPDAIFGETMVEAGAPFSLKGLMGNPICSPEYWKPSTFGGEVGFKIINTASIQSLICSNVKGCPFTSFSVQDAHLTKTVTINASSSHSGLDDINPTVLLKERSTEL
Briefly: Colorimetric COX. It counts as biochemical, ovine.

In a further assay the target is HER2 (Homo sapiens, UniProt P04626). Briefly: HER2 tyrosine kinase assay. It counts as biochemical. The conditions noted are these: IC50 HER2 inhibition.
HER2, sequence (P04626 23-1255): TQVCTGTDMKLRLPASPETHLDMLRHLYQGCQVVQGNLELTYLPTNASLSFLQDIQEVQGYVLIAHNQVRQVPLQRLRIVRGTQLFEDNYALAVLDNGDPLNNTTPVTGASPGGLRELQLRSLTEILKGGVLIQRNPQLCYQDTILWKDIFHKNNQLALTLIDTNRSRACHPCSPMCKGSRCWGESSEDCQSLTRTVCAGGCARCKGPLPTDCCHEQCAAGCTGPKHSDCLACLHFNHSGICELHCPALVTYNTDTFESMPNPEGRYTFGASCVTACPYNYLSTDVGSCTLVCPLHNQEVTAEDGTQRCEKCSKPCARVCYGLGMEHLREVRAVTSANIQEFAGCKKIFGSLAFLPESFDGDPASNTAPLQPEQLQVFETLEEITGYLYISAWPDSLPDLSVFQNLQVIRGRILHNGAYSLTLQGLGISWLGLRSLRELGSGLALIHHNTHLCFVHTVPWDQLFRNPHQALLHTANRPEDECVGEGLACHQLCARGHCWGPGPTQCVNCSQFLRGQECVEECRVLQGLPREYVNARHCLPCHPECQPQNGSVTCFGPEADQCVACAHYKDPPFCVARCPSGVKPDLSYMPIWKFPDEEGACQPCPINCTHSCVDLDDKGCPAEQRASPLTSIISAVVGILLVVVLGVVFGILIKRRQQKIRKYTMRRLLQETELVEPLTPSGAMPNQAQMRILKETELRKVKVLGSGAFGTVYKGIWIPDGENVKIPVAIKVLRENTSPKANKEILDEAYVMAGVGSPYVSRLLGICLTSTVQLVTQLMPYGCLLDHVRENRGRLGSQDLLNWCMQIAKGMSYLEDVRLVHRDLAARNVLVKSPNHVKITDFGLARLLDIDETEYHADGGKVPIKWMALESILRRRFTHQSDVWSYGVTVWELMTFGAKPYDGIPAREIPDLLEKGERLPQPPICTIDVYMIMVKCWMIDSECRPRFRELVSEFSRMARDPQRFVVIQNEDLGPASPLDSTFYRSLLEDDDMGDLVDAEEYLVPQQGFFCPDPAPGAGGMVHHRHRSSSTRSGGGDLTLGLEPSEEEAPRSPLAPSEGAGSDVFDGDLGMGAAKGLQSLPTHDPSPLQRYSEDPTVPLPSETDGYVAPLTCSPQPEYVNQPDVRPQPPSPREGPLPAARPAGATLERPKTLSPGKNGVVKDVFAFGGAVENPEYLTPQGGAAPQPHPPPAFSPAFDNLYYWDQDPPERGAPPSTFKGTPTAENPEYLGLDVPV
A further assay concerns 59 cancer cell lines. Briefly: NCI cytotoxicity screen, full panel. The conditions noted are these: 10.0 μM one dose; 59 cell lines. Type of assay: cell-based, human.
In a further assay the test system is NCI-H226. Briefly: NCI cytotoxicity screen. The conditions noted are these: 10.0 μM one dose. Type of assay: cell-based, human.
The subject of the next assay is SF-539. Briefly: NCI cytotoxicity screen. It counts as cell-based, human. The conditions noted are these: 10.0 μM one dose.
Another assay relates to MDA-MB-468. Briefly: NCI cytotoxicity screen. The conditions noted are these: 10.0 μM one dose. It counts as cell-based, human.
The subject of another assay is RPMI-8226. Briefly: NCI cytotoxicity screen. Type of assay: cell-based, human. The conditions noted are these: 10.0 μM one dose.
A further assay has as its system SN12C. Briefly: NCI cytotoxicity screen. Type of assay: cell-based, human. Particulars: 10.0 μM one dose; SN-12C.
For another assay, the system named is RXF 393. Briefly: NCI cytotoxicity screen. Type of assay: cell-based, human. The conditions noted are these: 10.0 μM one dose.
The test system of the next assay is SK-MEL-5. Briefly: NCI cytotoxicity screen. Type of assay: cell-based, human. Particulars: 10.0 μM one dose.
For a further assay, the system named is HCT-116. Briefly: NCI cytotoxicity screen. Particulars: 10.0 μM one dose. It counts as cell-based, human.
The next assay relates to SNB-19. Briefly: NCI cytotoxicity screen. The conditions noted are these: 10.0 μM one dose. It counts as cell-based, human.
For the next assay, the system named is OVCAR-5. Briefly: NCI cytotoxicity screen. The conditions noted are these: 10.0 μM one dose; OVCAR-5. Type of assay: cell-based, human.
The test system of the next assay is T-47D. Briefly: NCI cytotoxicity screen. It counts as cell-based, human. Particulars: 10.0 μM one dose; T-47D.
Another assay relates to LOX IMVI. Briefly: NCI cytotoxicity screen. Particulars: 10.0 μM one dose. Type of assay: cell-based, human.
The next assay relates to SR. Briefly: NCI cytotoxicity screen. Particulars: 10.0 μM one dose. Type of assay: cell-based, human.
Another assay deals with M14. Briefly: NCI cytotoxicity screen. Particulars: 10.0 μM one dose. Type of assay: cell-based, human.
The next assay concerns MDA-MB-435. Briefly: NCI cytotoxicity screen. The conditions noted are these: 10.0 μM one dose. Type of assay: cell-based, human.
The subject of a further assay is MALME-3M. Briefly: NCI cytotoxicity screen. It counts as cell-based, human. The conditions noted are these: 10.0 μM one dose; MALME-3M.
A further assay concerns 786-0. Briefly: NCI cytotoxicity screen. Type of assay: cell-based, human. The conditions noted are these: 10.0 μM one dose.
Another assay deals with BT-549. Briefly: NCI cytotoxicity screen. Type of assay: cell-based, human. The conditions noted are these: 10.0 μM one dose.
The next assay concerns NCI-H23. Briefly: NCI cytotoxicity screen. Type of assay: cell-based, human. Particulars: 10.0 μM one dose.
Another assay has as its system KM12. Briefly: NCI cytotoxicity screen. Particulars: 10.0 μM one dose; KM-12. Type of assay: cell-based, human.

Take “4-((4-Oxo-2-((2-oxo-2-(2-(1-(p-tolyl)ethylidene)hydrazineyl)ethyl)thio)quinazolin-3(4H)-yl)methyl)benzenesulfonamide [Compound 10]”: the GI % in the assay with U251 is reported as 15%; with EKVX it was 10%; in the assay on UO-31, 20%; in the assay with NCI-H322M, 14%; with SF-268, 14%; in the assay on CAKI-1, 16%.
Take `NS(=O)(=O)c1ccc(Cn2c(=S)[nH]c3ccccc3c2=O)cc1` [Compound 1, 4-((4-Oxo-2-thioxo-1,4-dihydroquinazolin-3(2H)-yl)methyl)benzenesulfonamide]: the GI % in the assay on SNB-75 is reported as 23%; with UO-31, 19%; in the assay with HOP-92 it was 14%; in the assay with CAKI-1, 11%.
In the case of `CCOC(=O)CSc1nc2ccccc2c(=O)n1Cc1ccc(S(N)(=O)=O)cc1` [Compound 2, Ethyl 2-((4-oxo-3-(4-sulfamoylbenzyl)-3,4-dihydroquinazolin-2-yl)thio)acetate], the GI % in the assay with SNB-75 amounted to 15%; in the assay with UO-31 it was 16%.
In the case of `NS(=O)(=O)c1ccc(Cn2c(SCC(=O)NN=Cc3ccccc3)nc3ccccc3c2=O)cc1` [Compound 4, 4-((2-((2-(2-Benzylidenehydrazineyl)-2-oxoethyl)thio)-4-oxoquinazolin-3(4H)-yl)methyl)benzenesulfonamide], the GI % was 13% in the assay with SNB-75; 12% with MDA-MB-231/ATCC; 18% in the assay on NCI-H522; 14% with MCF7; 14% with EKVX; 21% with UO-31. Further, the GI % amounted to 11% with HS 578T, 11% in the assay with UACC-62 and 16% in the assay on CAKI-1.
With `COc1cccc(C=NNC(=O)CSc2nc3ccccc3c(=O)n2Cc2ccc(S(N)(=O)=O)cc2)c1` [Compound 7, 4-((2-((2-(2-(3-Methoxybenzylidene)hydrazineyl)-2-oxoethyl)thio)-4-oxoquinazolin-3(4H)-yl)methyl)benzenesulfonamide], the IC50 at CDK9 turned out to be 155 ± 3.81 nM; against EGFR, 594 ± 14.5 nM; against COX-2 it was 50500 ± 1060 nM; against HER2, 387 nM. In addition, in the assay with 59 cancer cell lines, the “MG% (mean growth percent)” value was 89.4% and 89.35%.
For the compound `COc1cc(C=NNC(=O)CSc2nc3ccccc3c(=O)n2Cc2ccc(S(N)(=O)=O)cc2)cc(OC)c1OC` [Compound 8, 4-((4-Oxo-2-((2-oxo-2-(2-(3,4,5-trimethoxybenzylidene)hydrazineyl)ethyl)thio)quinazolin-3(4H)-yl)methyl)benzenesulfonamide], the GI % in the assay with MDA-MB-231/ATCC came to 15%; with NCI-H522, 48%; with NCI-H226, 11%; in the assay on SF-539, 12%; with MCF7 it was 11%; in the assay on EKVX, 15%. Further, the GI % came out at 25% in the assay on UO-31; 15% with NCI-H322M; 19% with MDA-MB-468; 13% in the assay with RPMI-8226; 10% with SN12C; 15% in the assay with HS 578T. Further, the values for the GI % in the assay on RXF 393, in the assay on SF-268 and in the assay on CAKI-1 were 10%, 15% and 14%, respectively. The “MG% (mean growth percent)” value with 59 cancer cell lines is 96.8% and 96.77%.
Consider `COc1cccc(C(C)=NNC(=O)CSc2nc3ccccc3c(=O)n2Cc2ccc(S(N)(=O)=O)cc2)c1` [Compound 11, 4-((2-((2-(2-(1-(3-Methoxyphenyl)ethylidene)hydrazineyl)-2-oxoethyl)thio)-4-oxoquinazolin-3(4H)-yl)methyl)benzenesulfonamide], for which the GI % came to 10% in the assay on SK-MEL-5; 20% in the assay with U251; 22% with SNB-75; 20% in the assay with HCT-116; 25% in the assay on MDA-MB-231/ATCC; 52% in the assay with NCI-H522. For the same compound, the GI % in the assay with SF-539 was found to be 28%; in the assay on MCF7, 10%; in the assay with UO-31 it was 21%; in the assay with SNB-19 it was 15%; in the assay with MDA-MB-468 it was 19%; in the assay with OVCAR-5, 12%. For the same compound, the GI % in the assay with HS 578T is 19%; in the assay with RXF 393, 16%; in the assay with SF-268, 25%; in the assay on T-47D, 11%; in the assay with CAKI-1 it was 21%. In addition, in the assay on 59 cancer cell lines, the “MG% (mean growth percent)” value is 94.5% and 94.54%.
With `COc1cc(OC)cc(C(C)=NNC(=O)CSc2nc3ccccc3c(=O)n2Cc2ccc(S(N)(=O)=O)cc2)c1` [Compound 12, 4-((2-((2-(2-(1-(3,5-Dimethoxyphenyl)ethylidene)hydrazineyl)-2-oxoethyl)thio)-4-oxoquinazolin-3(4H)-yl)methyl)benzenesulfonamide], the GI % turned out to be 32% in the assay with SK-MEL-5; 26% in the assay on U251; 39% in the assay on SNB-75; 20% in the assay with LOX IMVI; 28% in the assay on SR; 17% in the assay on HCT-116. For the same compound, the GI % with MDA-MB-231/ATCC worked out at 28%; with NCI-H522, 62%; in the assay on M14, 11%; in the assay with SF-539 it was 64%; in the assay with MDA-MB-435, 30%; with MALME-3M, 30%. Besides, the GI % in the assay with 786-0 was 15%; in the assay on SNB-19, 49%; with MDA-MB-468 it was 27%; in the assay with OVCAR-5 it was 14%; in the assay on BT-549, 57%; in the assay with HS 578T it was 11%. The GI % in the assay on RXF 393 was determined as 30%; in the assay on SF-268, 64%; with NCI-H23 it was 17%; in the assay with KM12 it was 30%; in the assay with T-47D, 62%; in the assay on UACC-62, 17%. Further, in the assay on CAKI-1, the GI % is listed as 16%. For the same compound, the IC50 at CDK9 stood at 320 ± 7.85 nM; at EGFR, 492 ± 12.1 nM; against COX-2, 21300 ± 440 nM; against HER2 it was 111 nM. In the assay with 59 cancer cell lines, the “MG% (mean growth percent)” value is reported as 88.4%.
`COc1cc(C(C)=NNC(=O)CSc2nc3ccccc3c(=O)n2Cc2ccc(S(N)(=O)=O)cc2)cc(OC)c1OC` [Compound 13, 4-((4-Oxo-2-((2-oxo-2-(2-(1-(3,4,5-trimethoxyphenyl)ethylidene)hydrazineyl)ethyl)thio)quinazolin-3(4H)-yl)methyl)benzenesulfonamide]: the GI % is 13% in the assay with SNB-75; 12% with SR; 11% with MDA-MB-231/ATCC; 11% in the assay with MCF7; 24% in the assay with UO-31; 16% in the assay with MDA-MB-468. Also, the GI % in the assay on T-47D and in the assay on CAKI-1 was 15% in each case. Moreover, in the assay on 59 cancer cell lines, the “MG% (mean growth percent)” value was found to be 97.44%.
